A value given as a limit tells only on which side of the number the result lay.

Consider 20 molecules from US20240208978A1, “IDH MUTANT INHIBITOR AND USE THEREOF” (WIGEN BIOMEDICINE TECHNOLOGY (SHANGHAI) CO., LTD., priority 2021, published 2024).

A short description of data set [1]: Stability test of human liver microsomes. It is filed as in vitro ADME. The following applies: 1 μM compound, 500 μg/ml human liver microsomes, NADPH regeneration system, 37° C.; read-out: Liver microsomal stability T1/2, Human. As to the method: (§1) After the 1 μM compound was incubated with 500 μg/ml of human or mouse liver microsomes and a NADPH regeneration system at 37° C. for different times, respectively, LC-MS-MS was used to analyze the remaining amount of the compound and calculate T1/2.
In general terms: Liver microsomes are vesicles of endoplasmic reticulum, rich in cytochrome P450 enzymes.

The target in the next data set is T1, IDH1 R132C (Homo sapiens, UniProt O75874, R132C).
T1 construct: endogenous in cells; host or cells: HT1080
T1 sequence (O75874 whole entry R132C): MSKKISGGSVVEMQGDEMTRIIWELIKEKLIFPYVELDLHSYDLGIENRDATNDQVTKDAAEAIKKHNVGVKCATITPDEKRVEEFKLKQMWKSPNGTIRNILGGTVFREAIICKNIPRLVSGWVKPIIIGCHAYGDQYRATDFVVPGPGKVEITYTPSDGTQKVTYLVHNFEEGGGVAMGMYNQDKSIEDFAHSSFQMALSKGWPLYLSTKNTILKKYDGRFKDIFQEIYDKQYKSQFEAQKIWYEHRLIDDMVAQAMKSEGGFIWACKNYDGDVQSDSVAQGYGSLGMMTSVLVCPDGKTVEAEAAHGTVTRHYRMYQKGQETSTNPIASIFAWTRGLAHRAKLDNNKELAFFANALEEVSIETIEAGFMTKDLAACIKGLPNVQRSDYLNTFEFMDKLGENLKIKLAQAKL
Kind of data set: Detection of 2-HG in supernatant of HT1080 cells carrying IDH1 R132C. To be noted: 72 h, LC-MS-MS. It is filed as cell-based. As to the method: (§2) U87MG cells overexpressing the mIDH1 R132H mutation or HT1080 cells carrying IDH1 R132C were seeded in a 48-well plate and a 96-well plate at 50,000 cells/well and 10,000 cells/well, respectively. After the cells were incubated overnight for adhesion, the supernatants were removed. The cell culture media containing serially diluted compounds were added, and the cells were incubated for 72 h. After 72 h, the culture media were collected and diluted 10-fold and 20-fold with water, respectively. Acetonitrile was added to extract the metabolites. The 2-HG content in the culture media was analyzed by LC-MS-MS. The percentage inhibition and IC50 of the compounds on 2-HG in the supernatant were calculated as compared with the control group.

A short description of data set [2]: Stability test of mouse liver microsomes. It is filed as in vitro ADME. The following applies: 1 μM compound, 500 μg/ml mouse liver microsomes, NADPH regeneration system, 37° C.; read-out: Liver microsomal stability T1/2, Mouse. As to the method:
as §1

The next data set deals with T2, mIDH1 R132H (Homo sapiens, UniProt O75874, R132H).
T2 construct: expressed in transfected cells; host or cells: U87MG
T2 sequence (O75874 whole entry R132H): as the sequence (O75874 whole entry R132C) above, with C132H counted along it
Kind of data set: Detection of 2-HG in supernatant of U87-IDH1 R132H cells. It is filed as cell-based. The following applies: U-87 MG, 72 h, U87MG cells overexpressing mIDH1 R132H, LC-MS-MS; for inhibition at 0.001 µM: 1 nM compound, read-out: Inhibition rate on 2-HG in the supernatant of U87-IDH R132H cells, 1 nM; for inhibition at 0.01 µM: 10 nM compound, read-out: Inhibition rate on 2-HG in the supernatant of U87-IDH R132H cells, 10 nM; for inhibition at 0.1 µM: 100 nM compound, read-out: Inhibition rate on 2-HG in the supernatant of U87-IDH R132H cells, 100 nM. As to the method: as §2

In general, IC50 refers to the point on the concentration scale where inhibition reaches its midpoint. Read a high IC50 as weaker potency in that assay. `C=CC(=O)N1CCN([C@@H](CC2CC2)c2ccc([C@H](C)Nc3ncc4[nH]c(=O)n(C(C)C)c4n3)cc2)CC1` [Compound 3-1]: the figures for the half-life at 1 μM in data set [1] and in data set [2] were 5 min and 4 min, respectively. This molecule also showed an IC50 against IDH1 R132C of 1.22 nM.

In general, inhibition refers to the share of the control response that was lost under treatment. For `C=CC(=O)N1CCN(C(CC2CC2)c2ccc([C@H](C)Nc3ncc4[nH]c(=O)n(CC)c4n3)cc2)CC1` (stereo partly drawn) [Compound 1, 2-(((1S)-1-(4-(1-(4-acryloylpiperazin-1-yl)-2-cyclopropylethyl)phenyl)ethyl)amino)-9-ethyl-7,9-dihydro-8H-purin-8-one], at mIDH1 R132H, the inhibition at 0.001 µM lay within 60 to 90%, the inhibition at 0.01 µM is above 90% and the inhibition at 0.1 µM is above 90%. The IC50 against IDH1 R132C came to 4.48 nM.

For the molecule `C=CC(=O)N1CCN(C(CC2CC2)c2ccc([C@H](C)Nc3ncc4[nH]c(=O)n(C(C)C)c4n3)cc2)CC1` (some centres unmarked) [Compound 3], at mIDH1 R132H, the inhibition at 0.001 µM lay within 30 to 60%, the inhibition at 0.01 µM was above 90% and the inhibition at 0.1 µM was above 90%. Also, on IDH1 R132C, the IC50 amounted to 2.06 nM.

For the molecule `C=CC(=O)N1CCN([C@@H](CC2CC2)c2ccc([C@H](C)Nc3ncc4[nH]c(=O)n(C5CCC5)c4n3)cc2)CC1` [Compound 5-1], on IDH1 R132C, half-maximal inhibition (IC50) required 2.63 nM.

For the molecule `C=CC(=O)N1CCN([C@@H](CC2CC2)c2ccc([C@H](C)Nc3ncc4c(n3)N(CC)C(=O)OC4)cc2)CC1` [LY-3410738, reference compound], in data set [1], the half-life at 1 μM stood at 1.8 min. Also, at mIDH1 R132H, the inhibition at 0.001 µM was 30 to 60%, the inhibition at 0.01 µM was above 90% and the inhibition at 0.1 µM is above 90%. At IDH1 R132C, this molecule showed an IC50 of 1.9 nM. Moreover, the half-life at 1 μM in data set [2] came out at 1.6 min.

As to `C=CC(=O)N1CCN([C@@H](CC2CC2)c2ccc([C@H](C)Nc3ncc4[nH]c(=O)n(CC)c4n3)cc2)CC1` [Compound 1-1], the half-life at 1 μM in data set [1] came to 11.3 min; in data set [2], 4.4 min. The molecule further registered an IC50 against IDH1 R132C of 2.24 nM.

Molecule `C=CC(=O)N1CCN([C@H](CC2CC2)c2ccc([C@H](C)Nc3ncc4[nH]c(=O)n(C(C)C)c4n3)cc2)CC1` [Compound 3-2] returned an IC50 against IDH1 R132C of 2.36 nM. In other words, the single-digit nanomolar range.

On to `C=CC(=O)N1CCN(C(CC2CC2)c2ccc([C@H](C)Nc3ncc4[nH]c(=O)n(C5CCC5)c4n3)cc2)CC1` (some centres unmarked) [Compound 5], for which, on mIDH1 R132H, the inhibition at 0.001 µM was in the range of 30 to 60%, the inhibition at 0.01 µM is above 90% and the inhibition at 0.1 µM is above 90%.

For the molecule `C=CC(=O)N1CCN(C(CC(C)C)c2ccc([C@H](C)Nc3ncc4[nH]c(=O)n(C5CCCC5)c4n3)cc2)CC1` (some centres unmarked) [Compound 32], at mIDH1 R132H, the inhibition at 0.001 µM was 30 to 60%, the inhibition at 0.01 µM is above 90% and the inhibition at 0.1 µM was above 90%.

On IDH1 R132C, `C=CC(=O)N1CCN([C@@H](CC2CC2)c2ccc([C@H](C)Nc3ncc4[nH]c(=O)n(C5CC5)c4n3)cc2)CC1` [Compound 4-1] returned an IC50 of 11.5 nM.

For `C=CC(=O)N1CCN(C(CC23CC(C2)C3)c2ccc([C@H](C)Nc3ncc4[nH]c(=O)n(CC)c4n3)cc2)CC1` (some centres unmarked) [Compound 12], on mIDH1 R132H, the inhibition at 0.001 µM lay within 30 to 60%, the inhibition at 0.01 µM is above 90% and the inhibition at 0.1 µM was above 90%.

Take `C=CC(=O)N1CCC2(CC1)CN(C(CC1CC1)c1ccc([C@H](C)Nc3ncc4[nH]c(=O)n(CC)c4n3)cc1)C2` (some centres unmarked) [Compound 20]: on mIDH1 R132H, the inhibition at 0.001 µM was 30 to 60%, the inhibition at 0.01 µM fell in the range of 60 to 90% and the inhibition at 0.1 µM is above 90%.

On to `C=CC(=O)N(C)C1CN(C(CC2CC2)c2ccc([C@H](C)Nc3ncc4[nH]c(=O)n(CC)c4n3)cc2)C1` (some centres unmarked) [Compound 27], for which, on mIDH1 R132H, the inhibition at 0.001 µM is below 30%, the inhibition at 0.01 µM lay in the range of 60 to 90% and the inhibition at 0.1 µM is above 90%.

With `N#Cc1ccnc(N2C(=O)CC[C@H]2C(=O)N(c2cncc(F)c2)[C@H](C(=O)NC2CC(F)(F)C2)c2ccccc2Cl)c1` [Ivosidenib, ivosidenib, reference compound], on mIDH1 R132H, the inhibition at 0.001 µM is below 30%, the inhibition at 0.01 µM is below 30% and the inhibition at 0.1 µM is 60 to 90%.

Turning to `C=CC(=O)N1CCN(C(CC)(CC)c2ccc([C@H](C)Nc3ncc4[nH]c(=O)n(CC)c4n3)cc2)CC1` [Compound 14], on mIDH1 R132H, the inhibition at 0.001 µM was in the range of 30 to 60%, the inhibition at 0.01 µM was above 90% and the inhibition at 0.1 µM was above 90%.

As to `C=CC(=O)N1CCN(C(CC2CC2)c2ccc(C(C)Nc3ncc4[nH]c(=O)n(C5CCCC5)c4n3)cc2)CC1` (centres unmarked) [Compound 6-1], the results for the half-life at 1 μM in data set [1] and in data set [2] were 4.4 min and 3.9 min, respectively. The molecule further gave a half-inhibitory concentration (IC50) on IDH1 R132C of 3.22 nM.

`C=CC(=O)N1CCN(C(CC2CCC2)c2ccc([C@H](C)Nc3ncc4[nH]c(=O)n(CC)c4n3)cc2)CC1` (some centres unmarked) [Compound 10]: on mIDH1 R132H, the inhibition at 0.001 µM lay in the range of 30 to 60%, the inhibition at 0.01 µM was 60 to 90% and the inhibition at 0.1 µM is above 90%.

For the molecule `C=CC(=O)N1CCN(C(CC2CC2)c2ccc(C3(Nc4ncc5[nH]c(=O)n(C(C)C)c5n4)CC3)cc2)CC1` (centres unmarked) [Compound 40], on mIDH1 R132H, the inhibition at 0.001 µM was below 30%, the inhibition at 0.01 µM lay within 60 to 90% and the inhibition at 0.1 µM is above 90%.

As to `C=CC(=O)N1CCN(C(CC2CC2)c2ccc([C@H](C)Nc3ncc4[nH]c(=O)n(C5CCCC5)c4n3)cc2)CC1` (some centres unmarked) [Compound 6], at mIDH1 R132H, the inhibition at 0.001 µM was below 30%, the inhibition at 0.01 µM lay within 60 to 90% and the inhibition at 0.1 µM was above 90%.

`C=CC(=O)NC1CCN(C(CC2CC2)c2ccc([C@H](C)Nc3ncc4[nH]c(=O)n(CC)c4n3)cc2)CC1` (some centres unmarked) [Compound 26]: at mIDH1 R132H, the inhibition at 0.001 µM lay in the range of 60 to 90%, the inhibition at 0.01 µM lay within 60 to 90% and the inhibition at 0.1 µM is above 90%.
